Consider 5 molecules from patent publication US8207189B2, “Compound having affinity for amyloid” (Nihon Medi-Physics Co., Ltd., priority 2007, dated 2012).

Series [1] relates to amyloid (aggregated Aβ1-42) injected into amygdaloid nucleus. Nature of the series: confirmation of imaging of amyloid in brain (autoradiogram, Aβ1-42 injected rats). Type of series: in vivo, rat. The following applies: brain slice 60 minutes after intravenous injection. The protocol:
(§1) (1) Aβ1-42 (manufactured by Wako) was dissolved in phosphate buffer (pH 7.4) and shaken at 37° C. for 72 hours, to obtain a 1 mg/mL suspension of aggregated Aβ (hereinafter referred to as amyloid suspension in the Examples).
(§2) (2) 2.5 μL (corresponding to […]) of the amyloid suspension was injected into an amygdaloid nucleus on one side of a male Wistar rat (7-week old). As a control, 2.5 μL of a phosphate buffered physiological saline solution (pH 7.4) was injected into an amygdaloid nucleus on the other side of the rat. The rats were examined 1 day after the injection of the amyloid suspension and the phosphate buffered physiological saline solution (pH 7.4).
(§3) (3) Compound 1 was dissolved in a 10 mg/mL ascorbic acid-containing physiological saline solution to obtain a sample solution (22 MBq/mL in radioactivity concentration in the sample solution). This solution was injected under thiopental anesthesia into the rat through the tail vein (dosage: 0.5 mL, dosed radioactivity: 11-13 MBq equivalent).
(§4) (4) Brain was removed 60 minutes after the injection to prepare a brain slice of 10 μm in thickness with a microtome (type: CM3050S, manufactured by LEICA). The brain slice was exposed to an imaging plate for 20 hours, and then image analysis was carried out by use of a Bio-imaging Analyzer (type: BAS-2500; manufactured by FUJIFILM Corporation).
(§5) Thus, it was confirmed that amyloid was deposited on the slice (FIG. 6b).
(§6) The same procedures as in Example 12 were performed except using a solution of Compound 2 in a 10 mg/mL ascorbic acid as a sample solution (the radioactive concentration of the sample solution was 25 MBq/mL).
(§7) (1) Aβ1-42 (manufactured by Wako) was dissolved in phosphate buffer (pH 7.4) and shaken at 37° C. for 72 hours, to obtain 1 mg/mL of a suspension of aggregated Aβ (hereinafter referred to as amyloid suspension in the Examples).
(§8) (3) A sample solution (30 MBq/mL in radioactivity concentration, Example 24) in which Compound 4 was dissolved in a 10 mg/mL ascorbic acid-containing physiological saline solution and a sample solution (30 MBq/mL in radioactivity concentration, Example 25) in which Compound 6 was dissolved in a 10 mg/mL ascorbic acid-containing physiological saline solution were prepared. This solution was injected under thiopental anesthesia into the rat through the tail vein (dosage: 0.5 mL, dosed radioactivity: 11-15 MBq equivalent).
(§9) Thus, it was confirmed that amyloid was deposited on the slice (FIG. 12 and FIG. 13).

Series [2] has as its target T1, amyloid (aggregated Aβ1-42) injected into amygdaloid nucleus (Homo sapiens, UniProt P05067).
T1 construct: Aβ1-42 (manufactured by Wako) was dissolved in phosphate buffer (pH 7.4); purchased Wako
The series is described as above. Type of series: in vivo, rat. To be noted: brain slice 60 minutes after intravenous injection, Aβ1-42. The method, then:
as §1, §2, §3, §4, §5, §6, §7, §8, §9

A short description of series [3]: transferability into brain and clearance after intravenous injection. Type of series: in vivo, rat. To be noted: for Radioactive distribution per unit weight in brain, After 2 min. / Radioactive distribution per unit weight in brain, After 5 min. / Radioactive distribution per unit weight in brain, After 30 min. / Radioactive distribution per unit weight in brain, After 60 min.: male Wistar rats, intravenous injection; for radioactive accumulation in brain two minutes after the injection (in words) / clearance from brain in 60 minutes (in words): rats, intravenous; for Radioactive distribution per unit weight in brain, After 2 min. / radioactive accumulation in brain two minutes after the injection (in words): 2 min. The method, then: Using Compound 1 (Example 10) and Compound 2 (Example 11), a time course change of radioactive accumulation in brain of male Wistar rats (7-week old) was measured.
A diethyl ether solution of Compound 1 (Example 10) prepared in Example 3, a diethyl ether solution of Compound 2 (Example 11) prepared in Example 6 and a diethyl ether solution of [^123I]-IMPY (Comparative Example 5) prepared in Reference Example 1 were each diluted with 10 mg/mL ascorbic acid-containing physiological saline solution to adjust to a radioactive concentration of 8-12 MBq/mL. 0.05 mL each of the prepared sample solutions was injected under thiopental anesthesia into the tail vein of the rats. The rats were sacrificed by bleeding from abdominal artery, and brains were removed and subjected to measurement of mass of brains and further subjected to measurement of radioactivity (hereinafter referred to as A in this Example) with a single channel analyzer (detector type: SP-20 manufactured by OHYO KOKEN KOGYO Co., Ltd.) 2, 5, 30 and 60 minutes after the injection. Further, the radioactivity level of the rest of the whole body was measured in the same manner as above (hereinafter referred to as B in this Example). Using these measurement results, radioactive distribution per unit weight of brain (% ID/g) at the respective time points were calculated in accordance with the following formula (3).
Three animals were used for the experiment at the respective time points.
Using Compound 4 and Compound 6, a time course change of radioactive accumulation in brain of male Wistar rats (7-week old) was measured.
Compound 4 (Example 22), Compound 6 (Example 23) and a solution of [^123I]-IMPY (Comparative Example 8) prepared above in Reference Example 1 were each diluted with a 10 mg/mL ascorbic acid-containing physiological saline solution to prepare solutions (20-31 MBq/mL in radioactive concentration). 0.05 mL each of the prepared sample solutions was injected under thiopental anesthesia into the tail vein of the respective Wistar rat (7-week old). The rats were sacrificed by bleeding from abdominal artery, and brains were removed and subjected to measurement of mass of brains and further subjected to measurement of radioactivity (hereinafter referred to as A in this Example) with a single channel analyzer (detector type: SP-20 manufactured by OHYO KOKEN KOGYO Co., Ltd.) 2, 5, 30 and 60 minutes after the injection. Further, the radioactivity level of the rest of the whole body was measured in the same manner as above (hereinafter referred to as B in this Example). Using these measurement results, radioactive distribution per unit weight of brain (% ID/g) at the respective time points were calculated in accordance with the following formula (5).

Series [4] is described as follows: partition coefficient based on the octanol extraction method. The series is classed as physicochemical. To be noted: octanol / 10 mmol/L phosphate buffer pH 7.4. The protocol:
Partition coefficients based on the octanol extraction method (hereinafter referred to as log Poctanol) were measured, which are generally known as an indicator of permeability of compounds through the blood-brain barrier (hereinafter referred to as BBB).
A diethyl ether solution of Compound 1 prepared in Example 3 (Example 8), a diethyl ether solution of Compound 2 prepared in Example 6 (Example 9), and a diethyl ether solution of [^123I]-IMPY prepared in Reference Example 1 (Comparative Example 4) were each diluted with 10 mg/mL ascorbic acid-containing physiological saline solution, and adjusted to a radioactive concentration of 20-30 MBq/mL. To 2 mL of octanol, 10 μL each of the prepared sample solutions was added, 2 mL of 10 mmol/L phosphate buffer (pH 7.4) was added, followed by stirring for 30 seconds. After the mixture was centrifuged with a low-speed centrifuge (2000 rpm×60 min.), the octanol layer and the water layer were sampled each in an amount of 1 mL, and subjected to measurement of radioactivity count with an autowell gamma system (Type: ARC-301B, manufactured by Aloka). Using the obtained radioactivity count, log Poctanol was calculated in accordance with the equation (2).
A diethyl ether solution (Example 20) of Compound 4 prepared in Example 16, a diethyl ether solution (Example 21) of Compound 6 prepared in Example 19, and a diethyl ether solution (Comparative Example 7) of [^123I]-IMPY were each diluted with a 10 mg/mL ascorbic acid-containing physiological saline solution to adjust to a radioactive concentration of 20-30 MBq/mL. To 2 mL of octanol, 10 μL each of the prepared sample solution was added, and 2 mL of 10 mmol/L phosphate buffer (pH 7.4) was further added, followed by stirring for 30 seconds. After the mixture was centrifuged with a low-speed centrifuge (2000 rpm×60 min.), the octanol layer and the water layer were sampled each in an amount of 1 mL, and subjected to measurement of radioactivity count with an autowell gamma system (Type: ARC-301B, manufactured by Aloka). Using the obtained radioactivity count, log Poctanol was calculated in accordance with the equation (4).

The conditions of series [5]: WO03/106439; cited from earlier work.
The mark [6] stands for this setting: Table 6 (Examples 20-21, Comparative Example 7).

T1 sequence (P05067 672-713): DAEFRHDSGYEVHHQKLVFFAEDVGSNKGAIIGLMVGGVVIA

Consider “2-[3′-(2″-hydroxyethoxy)phenyl]-6-[^123I]iodoimidazo[1,2-a]pyridine [Compound 4]”, for which, in series [1], the “accumulation of radioactivity at sites other than the amyloid injected sites” value was “little accumulation of radioactivity” and the “accumulation of radioactivity in amygdaloid nucleus on the physiological saline-injected side” value is on record as “no significant accumulation of radioactivity”. In addition, in series [2], the “accumulation of radioactivity in amygdaloid nucleus on the amyloid-injected side” value (from here on “accumulation … on the amyloid-injected side”) is on record as “marked accumulation of radioactivity”. Moreover, in series [3] (Table 7), the “Radioactive distribution per unit weight in brain, After 2 min.” value worked out at 0.56 % ID/g; the “Radioactive distribution per unit weight in brain, After 5 min.” value worked out at 0.28 % ID/g; the “Radioactive distribution per unit weight in brain, After 30 min.” value is 0.04 % ID/g; the “Radioactive distribution per unit weight in brain, After 60 min.” value was found to be 0.01 % ID/g. In series [3], the “radioactive accumulation in brain two minutes after the injection (in words)” value (from here on “radioactive accumulation”) is on record as “significant accumulation” and the “clearance from brain in 60 minutes (in words)” value (“clearance from brain” for short) was “rapidly clear away”. For the same molecule, in series [4] (setting [6]), the logPoctanol value is listed as 2.5.
With “2-[4′-(2″-hydroxyethoxy)phenyl]-6-[^123I]iodoimidazo[1,2-a]pyridine [Compound 1]”, in series [1], the “accumulation of radioactivity at sites other than the amyloid injected sites” value was “little radioactive accumulation” and the “accumulation of radioactivity in amygdaloid nucleus on the physiological saline-injected side” value was “no significant accumulation of radioactivity”. The “accumulation … on the amyloid-injected side” value in series [2] was “marked accumulation of radioactivity”. Moreover, in series [3] (Table 5), the “Radioactive distribution per unit weight in brain, After 2 min.” value is on record as 0.90 % ID/g; the “Radioactive distribution per unit weight in brain, After 5 min.” value came to 0.52 % ID/g; the “Radioactive distribution per unit weight in brain, After 30 min.” value was determined as 0.06 % ID/g; the “Radioactive distribution per unit weight in brain, After 60 min.” value is 0.01 % ID/g. In series [3], the “radioactive accumulation” value is given as “significant radioactive accumulation” and the “clearance from brain” value is “rapidly clear away”. In addition, in series [4] (Table 4 (Examples 8-9, Comparative Example 4)), the logPoctanol value is reported as 1.8.
On to “2-[4′-(3″-hydroxypropoxy)phenyl]-6-[^123I]iodoimidazo[1,2-a]pyridine [Compound 6]”, for which, in series [1], the “accumulation of radioactivity at sites other than the amyloid injected sites” value is given as “little accumulation of radioactivity” and the “accumulation of radioactivity in amygdaloid nucleus on the physiological saline-injected side” value is “no significant accumulation of radioactivity”. In series [2], the “accumulation … on the amyloid-injected side” value is given as “marked accumulation of radioactivity”. Besides, in series [3] (Table 7), the “Radioactive distribution per unit weight in brain, After 2 min.” value came to 0.81 % ID/g; the “Radioactive distribution per unit weight in brain, After 5 min.” value came to 0.56 % ID/g; the “Radioactive distribution per unit weight in brain, After 30 min.” value was determined as 0.07 % ID/g; the “Radioactive distribution per unit weight in brain, After 60 min.” value is listed as 0.02 % ID/g. In series [3], the “radioactive accumulation” value is given as “significant accumulation” and the “clearance from brain” value was “rapidly clear away”. In series [4] (setting [6]), this molecule showed a logPoctanol value of 2.1.
Consider `CC(=C(C#N)C#N)c1ccc2cc(N(C)CCF)ccc2c1` [FDDNP, 2-(1-{6-[(2-fluoroethyl)(methyl)amino]-2-naphthyl}ethylidene)malononitrile], for which, in series [5], the “reverse mutation test result” value is “positive”.
Consider `CN(C)c1ccc(-c2cn3cc(I)ccc3n2)cc1` [IMPY, 6-iodo-2-[4′-(N,N-dimethylamino)phenyl]imidazo[1,2-a]pyridine], for which the “reverse mutation test result” value in series [5] is recorded as “positive”.
